Reference: PubChem BioAssay (NCI)
Values joined by “and” are separate entries in the source; they are usually repeats but may differ in a detail not shown here. Equal values may be shown once.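 All cell lines were grown in 96-well plates and treated with compound for 48 hours. GI50: concentration for 50% inhibition of growth. TGI is the concentration that stops growth completely.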

What was measured:
Assay in all cases: growth of human tumour cells (NCI), 48 h
[1] = system: 786-0 renal
[2] = system: HOP-62 NSCLC
[3] = system: HL-60(TB) leukemia
[4] = system: EKVX NSCLC
[5] = system: OVCAR-8 ovarian
[6] = system: HCC-2998 colon
[7] = system: NCI-H460 lung
[8] = system: HT29 colon
[9] = system: NCI-H522 lung
[10] = system: NCI-H226 lung

Compound | GI50 [1] | TGI [1] [µM] | GI50 [2] | TGI [2] | GI50 [3] | TGI [3] | GI50 [4] | TGI [4] [µM] | GI50 [5] | TGI [5] | GI50 [6] | TGI [6] | GI50 [7] | TGI [7] | GI50 [8] | TGI [8] | GI50 [9] | TGI [9] | GI50 [10] | TGI [10]
CNC(=O)c1cc(Oc2ccc(NC(=O)Nc3ccc(Cl)c(C(F)(F)F)c3)c(F)c2)ccn1 | 3.39 µM and 3.06 µM | > 83.2 | 2.83 µM and 2.33 µM | 14.5 µM and > 10 µM | 0.518 µM and 0.539 µM | 2.68 µM and 4.1 µM | 2.96 µM and 2.68 µM | > 44 | 2.39 µM and 2.31 µM | > 20.8 µM and 8.28 µM | 2.44 µM and 1.9 µM | 10.4 µM and 8.17 µM | 2.67 µM and 2.86 µM | 9.42 µM and > 10 µM | 1.82 µM and 1.43 µM | 8.83 µM and > 10 µM | 1.73 µM and 1.7 µM | 5.84 µM and 6.43 µM | 2.15 µM and 0.988 µM | 8.01 µM and 8.05 µM
COCc1c(-c2cc3cc(C)cc(OC)c3s2)c2c(N)ncnn2c1CN1CCNC(=O)C1 | 5.86 µM | 82.9 | 2.6 µM | 15.9 µM | 8.71 µM | 32.7 µM | 2.67 µM | 29.8 | 4.85 µM | > 100 µM | 8.37 µM | > 100 µM | 4.05 µM | > 100 µM | 3.68 µM | 19.9 µM | 3.78 µM | 25.3 µM | 0.291 µM | 5.41 µM
COc1ccc2c(c1)nc(C(=O)c1ccco1)c(C(F)(F)F)[n+]2[O-] | 29.2 µM | > 100 | > 100 µM | > 100 µM | > 100 µM | > 100 µM | > 100 µM | > 100 | > 100 µM | > 100 µM | > 100 µM | > 100 µM | > 100 µM | > 100 µM | > 100 µM | > 100 µM | > 100 µM | > 100 µM | > 100 µM | > 100 µM
CCN(Cc1ccccc1)C1CCN(Cc2cc(Br)ccc2O)CC1 | 35.9 µM | > 100 | > 100 µM | > 100 µM | 31.3 µM | 98.8 µM | 31.9 µM | > 100 | 76.6 µM | > 100 µM | 33.7 µM | > 100 µM | 58.2 µM | > 100 µM | 20.1 µM | > 100 µM | 17 µM | 40.3 µM | > 100 µM | > 100 µM
COc1ccc2c(c1)[nH]c(=O)c1c3cccc(F)c3cn21 | 0.0665 µM | > 86.1 | 0.641 µM | 51.3 µM | 0.0183 µM | 0.0515 µM | 1.27 µM | > 100 | 0.129 µM | > 73.3 µM | 0.143 µM | 0.822 µM | 0.0442 µM | 11.7 µM | 0.0306 µM | – | 0.0756 µM | > 35.5 µM | 12.1 µM | 44.7 µM
CCOC(=O)Oc1cc2c(c(OC)c1OC)-c1ccc(OC)c(=O)cc1C(NC(C)=O)CC2 (stereo not given) | – | > 100 | – | > 93.1 µM | – | 0.0298 µM | – | > 100 | – | 19.7 µM | – | 0.683 µM | – | 6.67 µM | – | 13.2 µM | – | 0.0271 µM | – | 0.787 µM
Nc1ccc(C(=O)N/C(=C\c2cccc([N+](=O)[O-])c2)c2nc3[nH]c(=S)[nH]c(=O)c3[nH]2)cc1 | – | > 93.1 | – | 45.6 µM | – | > 100 µM | – | > 100 | – | > 90.3 µM | – | > 100 µM | – | > 100 µM | – | > 100 µM | – | > 100 µM | – | > 96.7 µM
O=C(/C=C/c1ccccc1F)c1ccc(Cl)c(Cl)c1 | – | 31.4 | – | > 100 µM | – | 51.4 µM | – | > 100 | – | > 100 µM | – | > 71 µM | – | > 100 µM | – | > 75.2 µM | – | 61.2 µM | – | > 100 µM
COc1ccc(/C(COc2ccc3oc(-c4ccccc4)cc(=O)c3c2)=N\O)cc1 | 0.855 µM | > 35.6 | 1.72 µM | > 50 µM | – | > 23.2 µM | 0.229 µM | 1.91 | 0.209 µM | – | 0.145 µM | 0.983 µM | 0.0882 µM | > 16.3 µM | 0.783 µM | > 50 µM | 1.87 µM | 39.5 µM | 12.3 µM | > 50 µM
CC1CC[P+](c2ccccc2)(c2ccccc2)c2c1ccc1ccccc21 (stereo not given) | 11 µM | 43.4 | 11.5 µM | > 57.5 µM | – | 21.4 µM | 92 µM | > 100 | – | 21.1 µM | – | 41.9 µM | – | 10.1 µM | – | 13.9 µM | – | 9.87 µM | 8.48 µM | 62.8 µM
c1ccc(C2OC3(CCC[C@H]4C[C@H]43)O[C@H]2c2ccccc2)cc1 (stereo not given in full) | – | > 100 | – | > 100 µM | – | 41.1 µM | – | > 100 | – | > 100 µM | – | > 100 µM | – | > 100 µM | – | > 100 µM | – | 67.1 µM | – | > 100 µM
CCc1ccc(CCC(=O)Nc2ncc(Cc3ccc(Cl)cc3)s2)o1 | 0.582 µM | > 100 | 0.623 µM | > 100 µM | 0.289 µM | 1.93 µM | 0.527 µM | > 100 | 0.572 µM | > 100 µM | 0.812 µM | > 100 µM | 0.335 µM | > 100 µM | 0.367 µM | > 100 µM | 0.302 µM | 53.9 µM | – | > 100 µM
COc1ccc2c(c1OC)CO[C@@H]2[C@H]1c2c(cc3c(c2OC)OCO3)CCN1S(=O)(=O)c1cn(C)cn1 | 0.968 µM | > 100 | 1.88 µM | > 100 µM | 1.66 µM | 4.9 µM | 13.1 µM | > 100 | 3.24 µM | > 100 µM | 3.23 µM | > 100 µM | 2.87 µM | 26.8 µM | 0.614 µM | > 100 µM | 0.427 µM | 8.32 µM | 0.462 µM | 4.48 µM
CC1/C(=N\O)CC(c2ccccc2)N(C)C1c1ccccc1 (stereo not given) | – | > 100 | – | > 100 µM | – | > 100 µM | – | > 100 | – | > 100 µM | – | > 100 µM | – | > 100 µM | – | > 100 µM | – | > 100 µM | – | > 100 µM
CC1=C2[C@@H](CC1)[C@]1(C)O[C@@](C(C)C)(C[C@H]1OC(=O)CO)[C@H]2OC(=O)C1CC1c1ccccc1 (stereo not given in full) | 15.1 µM | 32.2 | 15.2 µM | 29.7 µM | 15 µM | 38 µM | 8.21 µM | 22.7 | 12.9 µM | 35.6 µM | 13.5 µM | 29.4 µM | 14.5 µM | 32.2 µM | 13.5 µM | 28.3 µM | 12.7 µM | 28 µM | 16.2 µM | 35.7 µM
COc1cc(/C=N/Nc2ncnc3c2cnn3-c2ccccc2)ccc1O | > 16.2 µM | > 25 | 16.9 µM | > 25 µM | 11.7 µM | > 25 µM | > 25 µM | > 25 | > 14.7 µM | > 25 µM | 21.6 µM | > 25 µM | 12.9 µM | > 25 µM | 8.18 µM | > 24.1 µM | 2.27 µM | > 17.3 µM | > 25 µM | > 25 µM
CN(C)C(=N/O)/C(=N\O)N(C)C | – | > 100 | – | > 100 µM | – | > 100 µM | – | > 100 | – | > 100 µM | – | > 100 µM | – | > 100 µM | – | > 100 µM | – | > 100 µM | – | > 100 µM
NCCCC[C@@H]1NC(=O)[C@H](CC(=O)O)NC(=O)CNC(=O)[C@H](CCCN=C(N)N)NC(=O)[C@@H](N)CSSC[C@@H](C(=O)O)NC(=O)[C@H](CC(=O)O)NC(=O)[C@@H]2CCCN2C(=O)CNC1=O | > 100 µM | > 100 | > 100 µM | > 100 µM | > 100 µM | > 100 µM | > 100 µM | > 100 | > 100 µM | > 100 µM | > 100 µM | > 100 µM | > 100 µM | > 100 µM | > 100 µM | > 100 µM | > 100 µM | > 100 µM | > 100 µM | > 100 µM
COc1ccc(C/C(=C(\C)c2ccc(OCCN3CCCC3)cc2)c2ccc(OCCN3CCCC3)cc2)cc1 | 1.63 µM | 3.24 | 2.18 µM | 7.02 µM | 1.67 µM | 3.63 µM | 2.21 µM | 5.89 | 2.05 µM | 4.38 µM | 1.74 µM | 3.19 µM | 2.08 µM | 4.17 µM | 1.58 µM | 3.07 µM | 1.86 µM | 3.53 µM | 2.54 µM | 7.64 µM
Cc1ccc(S(=O)(=O)SC(C)(C)C)cc1 | – | 31.8 | – | > 100 µM | – | 40.7 µM | – | > 63.9 | – | 48.3 µM | – | > 58.7 µM | – | > 100 µM | – | 34.8 µM | – | 32.3 µM | – | > 100 µM
COc1cccc(CC(C)=C(c2ccc(OCCN3CCCCC3)cc2)c2ccc(OCCN3CCCCC3)cc2)c1 | 1.87 µM | 3.89 | 2.08 µM | 4.21 µM | 1.78 µM | 4.12 µM | 2.03 µM | 4.48 | 2.3 µM | 4.81 µM | 1.74 µM | 3.72 µM | 1.96 µM | 3.93 µM | 0.82 µM | 2.79 µM | 2.16 µM | 4.53 µM | 2.33 µM | 5.12 µM
O=S(=O)(NNc1ccccc1)c1ccccc1 | – | > 100 | – | 32.7 µM | – | 13.5 µM | – | 31.9 | – | > 100 µM | – | > 100 µM | – | 21.2 µM | – | 27.2 µM | – | 31.1 µM | – | 18.5 µM
CC(C)(C)c1ccc(Oc2ccc(N)cn2)cc1 | 16.8 µM | > 100 | > 100 µM | > 100 µM | 0.545 µM | 17.4 µM | 28.2 µM | > 100 | 75.6 µM | > 100 µM | > 100 µM | > 100 µM | 72.3 µM | > 100 µM | 47.2 µM | > 100 µM | 9.46 µM | > 100 µM | 44.5 µM | > 100 µM
CC1=C(SCCC(=O)OC(C[Se]C2=C(C)C(=O)c3ccccc3C2=O)C(=O)NCCCCCC(=O)OCc2ccccc2)C(=O)c2ccccc2C1=O (stereo not given) | 4.68 µM | 14 | 3.82 µM | 14.4 µM | 3.09 µM | 8.52 µM | 3.62 µM | 17.8 | 4.16 µM | 15 µM | 6.52 µM | 18.5 µM | 1.9 µM | 4.54 µM | 3.56 µM | 13.3 µM | 3.96 µM | 15 µM | 19.5 µM | 51.3 µM
